Data from patent publication US20080206194A1, “Method for the treatment of breast cancer” (priority 2007, published 2008).
“Also recorded” adds a separate entry of the source.

Assays:
ERα = ERα detection by immunochemical staining of DMBA/progestin-induced mammary carcinomas; type: in vivo; conditions: wild-type FVB mice, medroxyprogesterone/DMBA-induced carcinogenesis, 40 mg/kg subcutaneously, weekly, for 12 weeks, rabbit polyclonal antibody
Procedure: FIG. 1 illustrates ER detection by immunochemical staining with a rabbit polyclonal antibody of dimethylbenz(α)anthracene (DMBA)/progestin-induced mammary carcinomas of wild-type FVB mice, transgenic MMTV-Pax8PPARγ FVB mice and GW9662-treated mice, with 40 mg/kg, subcutaneously, weekly, for 12 weeks.
Mammary carcinogenesis was induced in female wild-type FVB/N or MMTV-Pax8PPARγ transgenic mice purchased from Charles River Laboratories (Wilmington, Mass.) by subcutaneous injection of 600 mg/kg medroxyprogesterone acetate suspension (150 mg/ml, Sicor Pharmaceuticals Inc., Irvine, Calif.), followed one week later by four weekly oral doses of 1 mg dimethylbenz(a)anthracene (DMBA) dissolved in cottonseed oil (10 mg/ml). Following the last dose of DMBA, mice were injected subcutaneously once a week with 40 mg/kg GW9662 dissolved in cottonseed oil (10 mg/ml). […]
Mammary carcinomas from transgenic MMTV-Pax8PPARγ FVB mice stained intensely for ERα, particularly in the basal layer of cells, as compared to low ERα staining in ductal epithelium from wild-type FVB mice (see FIG. 1). […] ERα was detected by immunochemical staining with a rabbit polyclonal antibody (Santa Cruz Biotechnology, sc-542) diluted 1:1000.

mammary tumors = assay: Mammary tumor formation after carcinogenesis in Pax8PPARγ transgenic mice; type: in vivo; conditions: MMTV-Pax8PPARγ transgenic mice, ER(+) carcinomas; 200 mg/kg subcutaneously once a week for three months after carcinogen administration
Procedure: FIG. 2 is a bar graph showing the total number of mammary tumors appearing in transgenic MMTV-Pax8PPARγ FVB mice treated with either vehicle or ERα antagonist fulvestrant, 200 mg/kg subcutaneously once per week for three months after carcinogen administration.
Mammary carcinogenesis (see, e.g., Yin et al., Characterization of medroxyprogesterone and DMBA-induced multilineage mammary tumors by gene expression. Mol. Carcinogenesis 42:pp. 42-50, (2005)) was induced in Pax8PPARγ transgenic mice, which mammary carcinomas are ER(+) and were treated once a week for three months with the ER antagonist fulvestrant at a dose of 200 mg/kg administered subcutaneously in an oil emulsion. […] Each experimental group consisted of 6 mice. FIG. 2 indicates the total number of mammary tumors appearing three months after carcinogen administration.

| SMILES | ERα expression (immunochemical staining) in mammary carcinomas (ERα) | tumor formation (total number of mammary tumors) (mammary tumors) |
| --- | --- | --- |
| O=C(Nc1ccccc1)c1cc([N+](=O)[O-])ccc1Cl [GW9662, 2-Chloro-5-nitrobenzanilide] | substantial ERα staining; also recorded: pattern of ERα expression similar to MMTV-Pax8PPARγ mice |  |
| C[C@]12CC[C@@H]3c4ccc(O)cc4C[C@@H](CCCCCCCCC[S+]([O-])CCCC(F)(F)C(F)(F)F)[C@H]3[C@@H]1CC[C@@H]2O (some centres unmarked) [fulvestrant] |  | completely inhibited tumor formation |
